The text below walks through data of article PMC13376213, “Systematic discovery of motif-based interactions of the auxiliary domains of USP family deubiquitinases” (Nature Communications, 2026).

What all share (type): binding
Test [1] has as its target T1, USP22 zf-UBP domain (Homo sapiens, UniProt Q9UPT9).
T1 construct: USP22_zf-UBP; Q9UPT9; zf-UBP; 37; 130; 6xHis-GST (N, cleaved yes); made in house; host or cells: Escherichia coli BL21-Gold (DE3)
T1 sequence (Q9UPT9 37-130): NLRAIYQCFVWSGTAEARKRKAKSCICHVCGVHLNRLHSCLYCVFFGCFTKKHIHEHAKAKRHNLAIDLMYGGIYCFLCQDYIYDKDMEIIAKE
In words: FP-monitored affinity measurements, USP22 zf-UBP. As to conditions: USP22_zf-UBP. As for the experimental part: (§1) Proteins were expressed in Escherichia coli (E.coli) BL21-Gold (DE3) bacteria. The cDNAs encoding N-terminal 6-histidine-glutathione S-transferase tagged (6xHis-GST), 6xHis-tagged or GST-tagged protein domains in pETM33, pETM11, pGEX6P1 expression vectors respectively, were obtained from Genescript or kindly provided by MRC-PPU (Suppl. Data 1) The bacteria were transformed with the plasmid and grew at 37 °C in 2YT (5 g/L NaCl, 16 g/L tryptone and 10 g/L yeast extract) supplemented with Kanamycin (30 μg/mL) until reaching an OD600 of 0.7. Protein expression was induced with 0.3 mM isopropyl β-D-1 thiogalactopyranoside (IPTG) for 18 h at 18 °C while shaking. For zinc-finger domains, 50 μM of ZnSO4 was added during expression. The bacterial cultures were pelleted for 15 minutes at 4000 x g at 4 °C and stored at −20 °C until purification. The pellets were resuspended in lysis buffer (1× phosphate-buffered saline (PBS), 0.5 % Triton-X, 5 mM MgCl2, 10 μg/mL lysozyme, cOmplete^TM EDTA-free protease inhibitor cocktail (Roche), 10 μg/mL DNAseI) and incubated for 1 h shaking at 4 °C. […] The supernatant was incubated with glutathione (GSH) Sepharose (Cytiva) or Ni2+ Sepharose (Cytiva) for 1 h at 4 °C while shaking. The beads with the bound protein were washed with 1x PBS and eluted with 10 mM reduced glutathione in 50 mM Tris pH 8.0. For fluorescence polarization experiments, the proteins were not eluted from the beads, and the 6xHis-GST tag was cleaved overnight on GSH Sepharose beads at 4 °C while shaking with PreScission Protease in cleavage buffer (50 mM Tris pH 7.5, 150 mM NaCl, 1 mM DTT). The sample containing the cleaved domain was separated from the tag and protease and buffer-exchanged to 50 mM sodium phosphate buffer pH 7.4 with 1 mM DTT using a PD-10 desalting column (Cytiva). The purity and size of the proteins were analyzed by SDS-PAGE electrophoresis.
(§2) The measurements were performed at room temperature in a non-binding black half area 96-well plate (Corning) with a total volume of 50 μL per well. Peptides were obtained from GeneCust (France) with >95% purity. FITC-labeled peptides (N-terminally FITC-labeled without spacer and C-terminally amidated) were dissolved in dimethyl sulfoxide (DMSO), and unlabeled peptides (N-terminally acetylated and C-terminally amidated) were dissolved in 50 mM phosphate buffer pH 7.4. Saturation measurements were performed using a serial dilution of the protein domains in phosphate buffer (25 μL) and the addition of 10 nM FITC-labeled peptide (in phosphate buffer supplemented with 2 mM DTT) (25 μL). […] All measurements were performed in three technical replicates. The data were analyzed using GraphPad Prism version 9.2.0 for MacOS (GraphPad Software, San Diego, California USA, www.graphpad.com). The saturation curves were fitted to the quadratic equation, and the displacement curves were fitted to a sigmoidal dose-response equation as described previously.

Test [2] addresses T2, USP11 DUSP-UBL domain (Homo sapiens, UniProt P51784).
T2 construct: USP11_UBL; P51784; UBL; 6xHis-GST (N, cleaved yes); made in house; host or cells: Escherichia coli BL21-Gold (DE3)
Briefly: FP-based affinity measurements, USP11 DUSP-UBL. As to conditions: USP11_DUSP_UBL, read-out: KD. As for the experimental part:
as §1
as §2, with “The saturation curves were fitted to the quadratic equation, and the displacement curves were fitted to a sigmoidal dose-response equation as described previously.” left out

In test [3] the target is T3, USP33 zf-UBP domain (Homo sapiens, UniProt Q8TEY7).
T3 construct: USP33_UBP; Q8TEY7; zf-UBP; 36; 130; 6xHis-GST (N, cleaved yes); made in house; host or cells: Escherichia coli BL21-Gold (DE3)
T3 sequence (Q8TEY7 with tags, fused parts or gaps): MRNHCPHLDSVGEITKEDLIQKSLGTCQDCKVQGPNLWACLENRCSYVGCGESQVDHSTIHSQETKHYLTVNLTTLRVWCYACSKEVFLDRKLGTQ
Briefly: FP-monitored affinity measurements, USP33 zf-UBP. As to conditions: USP33_UBP; FP displacement by unlabelled peptide; read-out: KD.
Protocol: (§3) The measurements were performed at room temperature in a non-binding black half area 96-well plate (Corning) with a total volume of 50 μL per well. […] All measurements were performed in three technical replicates. […] The saturation curves were fitted to the quadratic equation, and the displacement curves were fitted to a sigmoidal dose-response equation as described previously[68].

The target in test [4] is T4, USP20 zf-UBP domain (Homo sapiens, UniProt Q9Y2K6).
T4 construct: USP20_UBP; Q9Y2K6; zf-UBP; 99; 6xHis-GST (N, cleaved yes); made in house; host or cells: Escherichia coli BL21-Gold (DE3)
In words: FP-monitored affinity measurements, USP20 zf-UBP. As to conditions: USP20_UBP; FP displacement by unlabelled peptide; read-out: KD.
Protocol: as §3

[5] abbreviates: FP displacement by unlabelled peptide.
[6] abbreviates: direct FP titration (saturation) of the FITC-labelled peptide.

Read-outs that look alike come from different tables or passages of the source. Peptide text beside a SMILES is read from it. * marks the point of attachment. FITC = O=C1OC2(c3ccc(O)cc3Oc3cc(O)ccc32)c2ccc(NC(=S)*)cc21

T2 sequence (P51784 67-288): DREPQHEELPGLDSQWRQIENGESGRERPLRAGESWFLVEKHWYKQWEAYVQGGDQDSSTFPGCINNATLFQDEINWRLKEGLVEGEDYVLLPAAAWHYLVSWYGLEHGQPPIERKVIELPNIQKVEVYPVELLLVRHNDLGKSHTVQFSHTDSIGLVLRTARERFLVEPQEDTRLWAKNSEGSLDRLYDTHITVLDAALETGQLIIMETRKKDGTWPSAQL
T4 sequence (Q9Y2K6 4-99): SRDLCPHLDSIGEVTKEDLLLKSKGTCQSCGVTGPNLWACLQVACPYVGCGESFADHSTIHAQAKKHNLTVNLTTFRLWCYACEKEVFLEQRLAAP

Regarding “Ac-VPSLDDFAGQSWSSWVERADLP-NH2 [ATXN7L2_18-39]”, in test [1] (setting [5]), binding was characterised by a dissociation constant (Kd) of 2.91 µM.
Regarding `CC[C@H](C)[C@H](NC(=O)[C@H](Cc1c[nH]c2ccccc12)NC(=O)[C@H](CC(=O)O)NC(=O)[C@@H]1CCCN1C(=O)[C@H](Cc1ccc(O)cc1)NC(=O)[C@@H](NC(=O)[C@@H](NC(=O)[C@H](C)NC(=O)[C@H](CO)NC(=S)Nc1ccc2c(c1)C(=O)OC21c2ccc(O)cc2Oc2cc(O)ccc21)C(C)C)[C@@H](C)O)C(=O)NCC(=O)N[C@@H](CCC(N)=O)C(=O)N[C@@H](CO)C(=O)N[C@@H](Cc1ccc(O)cc1)C(=O)N[C@@H](CO)C(=O)N[C@@H](CCC(=O)O)C(=O)N[C@H](C(N)=O)C(C)C` [FITC-ORAI1] ({FITC}-SAVTYPDWIGQSYSEV-NH2), the dissociation constant Kd (as a rule, the equilibrium constant for the complex coming apart) in test [2] (setting [6]) was about 294 µM.
As for “Ac-VPSPEAFLGKPWSSWID-NH2 [ATXN7L1_36-52]”, the Kd in test [1] (setting [5]) was 11 µM.
Consider AQDSPIDFHLQSWMNN [CEP192], for which the Kd in test [3] was determined as 14.1 µM; in test [4] it was 37.1 µM.
Take `CC(=O)N[C@@H](Cc1ccc(O)cc1)C(=O)N[C@@H](CCCCN)C(=O)N[C@@H](CCC(N)=O)C(=O)N[C@@H](CCC(N)=O)C(=O)N[C@@H](CCCNC(=N)N)C(=O)N[C@@H](CO)C(=O)N[C@@H](CC(=O)O)C(=O)N[C@@H](CC(C)C)C(=O)N[C@@H](C)C(=O)NCC(=O)N1CCC[C@H]1C(=O)N[C@H](C(=O)N[C@@H](CC(=O)O)C(N)=O)C(C)C` [APBA2_N334A]: in test [3], the Kd was found to be 112 µM.
As for Ac-SAVTYPDWIGQSYSEV-NH2 [ORAI1_USP11], the dissociation constant Kd in test [2] (FP displacement of the FITC-labelled peptide by unlabelled peptide) is about 207 µM.
The compound “Ac-VPSPEAFLGKPWSSWIDAAKLH-NH2 [ATXN7L1_36-57]” registered a Kd in test [1] (setting [5]) of 0.1 µM.
As for `CC[C@H](C)[C@H](NC(=O)[C@H](Cc1c[nH]c2ccccc12)NC(=O)[C@H](CO)NC(=O)[C@H](CO)NC(=O)[C@H](Cc1c[nH]c2ccccc12)NC(=O)[C@@H]1CCCN1C(=O)[C@H](CCCCN)NC(=O)CNC(=O)[C@H](CC(C)C)NC(=O)[C@H](Cc1ccccc1)NC(=O)[C@H](C)NC(=O)[C@H](CCC(=O)O)NC(=O)[C@@H]1CCCN1C(=O)[C@H](CO)NC(=O)[C@@H]1CCCN1C(=O)[C@@H](NC(=S)Nc1ccc2c(c1)C(=O)OC21c2ccc(O)cc2Oc2cc(O)ccc21)C(C)C)C(=O)N[C@@H](CC(=O)O)C(=O)N[C@@H](C)C(=O)N[C@@H](C)C(=O)N[C@@H](CCCCN)C(=O)N[C@@H](CC(C)C)C(=O)N[C@@H](Cc1c[nH]cn1)C(N)=O` [FITC-ATXN7L1_36-57] ({FITC}-VPSPEAFLGKPWSSWIDAAKLH-NH2), the affinity in test [1] (setting [6]), expressed as Kd, was 1 µM.
